Entries after “also recorded” stand apart in the source; their conditions may differ. Numbered stars: 1 amine (or outer) side, 2 acyl side, 3 side chain; on linkers, the order of the positions; unused ones are H or OH. Square brackets hold non-standard residues; d marks the D form. Ends that are not written are not given here. γGlu = O=C(O)[C@H](CCC(=O)[*:2])N[*:1]
Columns and labels:
[1] = DPPH-scavenging ability assay; type: biochemical; conditions: peptides; vs GSH
Protocol: 2. DPPH (2,2-Diphenyl-1-Picryl-Hydrazyl-Hydrate) Assay Method
The antioxidant activity due to the DPPH-scavenging ability of yeast hydrolyzates was measured using the methods of Choi Chang-seop et al. (2003) and Shekhar et al. (2014). 20 μl of a sample (1 to 5000 μg/ml) dissolved in distilled water was added to 180 μl of an ethanol solution containing DPPH (0.111 mM). The resulting mixture was allowed to react at 25° C. for 30 minutes, and absorbance was measured at 517 nm. Ascorbic acid was used to create the standard curve, and DPPH-scavenging ability (%) was calculated and expressed by the equation of [(absorbance upon no addition of sample−absorbance of sample)/absorbance upon no addition of sample]×100.
(§1) The DPPH-scavenging ability and reducing power of the fractions of respective yeast hydrolyzates (Preparation Examples 1 to 4) were measured using the same method of measuring DPPH-scavenging ability and reducing power as in Experimental Example 1.

[2] = Reducing power assay (method of Oyaizu); conditions: peptides; vs GSH
Protocol: 3. Reducing Power Assay Method
The reducing power of yeast hydrolysates was measured using the method of Oyaizu (1986). Specifically, a sample (1-5000 μg/ml, 60 μl) dissolved in distilled water was mixed with phosphate buffer (150 μl, 0.2M, pH 6.6) and potassium ferricyanide (K 3 Fe(CN) 6, 150 μl, 1%), followed by reacting at 50° C. for 20 minutes. Further, 150 μl of trichloroacetic acid (10%) was added thereto, followed by centrifugation at 2,000 g for 10 minutes. 150 μl of the supernatant containing the sample was added to 150 μl of DW and FeCl3 (30 μl, 0.1%). The resulting mixture was allowed to react at 25° C. for 10 minutes, and absorbance was measured at 700 nm.
as §1

Nrf2 mRNA = Nrf2 mRNA expression level by real-time PCR in Tert-BHP-treated HEK293 cells; type: cell-based; conditions: Tert-BHP 300 μM, peptide 500 μM, 18 hours; for effect on expression of Nrf2 mRNA: FIGS. 5A to 5C; for Nrf2 mRNA expression compared to positive control GSH: vs GSH
Protocol: In the present invention, the antioxidant activity was compared between the 100 types of peptides, and the change in Nrf2 mRNA expression was measured through PCR in order to select the final peptide.
(§2) An HEK293 cell (kidney cell) line was seeded at a density of 6.6×10^5/well in DMEM (Dulbecco's Modified Eagle's Medium) medium on a 6-well plate and cultured at 37° C. under 5% CO2 for 24 hours. The next day, the medium was exchanged with serum and amino-acid-free media, and then the cells were further cultured for 20 hours or longer. The cells were treated with Tert-BHP (300 μM) and 500 μM 100 types of peptides, and then cultured for 18 hours.
RNA was extracted from the cells treated with 100 types of peptides in (1) using TRIzol (Thermo Fisher Scientific). A GoScript™ Reverse Transcription System (Promega, Wisconsin, USA) was used to synthesize cDNA from the RNA. The cDNA was synthesized by performing annealing using 1 μg of RNA, 0.5 μg of an oligo dt primer, 0.5 μg of a random primer and RT-PCR pre-mixture at 25° C. for 5 minutes, extension at 42° C. for 60 minutes, and inactivation at 70° C. for 15 minutes.
(§3) PCR was performed using Maxime™ PCR PreMix (i-StarTaq) (Intron Biotechnology, Korea). Real-time PCR was performed using SsoAdvanced™ Universal SYBR® Green Supermix (Bio-Rad, USA). 100 ng of cDNA, 2 μM (pmol/μl) primers, 10 μl of 2X SsoAdvanced™ Universal SYBR® Green Supermix and DW were added to the PCR plate well. Then, the temperature was cyclically adjusted to 95° C. for 3 minutes, 95° C. for 10 seconds and 58° C. for 40 seconds for a total of 40 cycles. A PCR reaction was performed using a CFX96 Touch™ Real-Time PCR Detection System (Bio-Rad, California, USA), and fluorescence intensity was measured at the end of each cycle.

SOD2 mRNA = SOD2 mRNA expression level by real-time PCR in Tert-BHP-treated HEK293 cells; type: cell-based; conditions: Tert-BHP 300 μM, peptide 500 μM, 18 hours; for effect on SOD2 mRNA expression: FIG. 6; for SOD2 mRNA expression compared to positive control GSH: vs GSH
Protocol: The expression of SOD2 mRNA as another antioxidant factor was determined. The cell line culture, RNA extraction, cDNA synthesis and PCR experiments were performed in the same manner as in Experimental Example 5 above. A detailed description thereof is given below.
as §2, with “and” for “under”
RNA was extracted from the cells treated with 100 types of peptides in (1) using TRIzol (Thermo Fisher Scientific). A GoScript™ Reverse Transcription System (Promega, Wisconsin, USA) was used to synthesize cDNA from the RNA. The cDNA was synthesized by performing annealing with 1 μg RNA, 0.5 μg of an oligo dt primer, 0.5 μg of a random primer, and RT-PCR pre-mixture at 25° C. for 5 minutes, extension at 42° C. for 60 minutes, and inactivation at 70° C. for 15 minutes.
as §3, with “using the” for “using a”

Substance: γ-GLU-THR-GLY ([γGlu]-Thr-Gly; also: gamma-glutamyl isopeptide bond (Glu side chain to Thr))
- DPPH-scavenging ability of peptide compared to GSH [1]: comparable or superior to GSH
- reducing power of peptide compared to GSH [2]: comparable or superior to GSH
- effect on expression of Nrf2 mRNA (Nrf2 mRNA): improve the expression of Nrf2 mRNA
- Nrf2 mRNA expression compared to positive control GSH (Nrf2 mRNA): remarkably excellent effect; also recorded: statistically significant activity; also recorded: comparable or superior to GSH
- effect on SOD2 mRNA expression (SOD2 mRNA): increased SOD2 mRNA expression
- SOD2 mRNA expression compared to positive control GSH (SOD2 mRNA): remarkably excellent; also recorded: statistically significant activity

Substance: γ-GLU-VAL-CYS ([γGlu]-Val-Cys; also: gamma-glutamyl isopeptide bond (Glu side chain to Val))
- DPPH-scavenging ability of peptide compared to GSH [1]: comparable or superior to GSH
- reducing power of peptide compared to GSH [2]: comparable or superior to GSH
- effect on expression of Nrf2 mRNA (Nrf2 mRNA): improve the expression of Nrf2 mRNA
- Nrf2 mRNA expression compared to positive control GSH (Nrf2 mRNA): remarkably excellent effect; also recorded: statistically significant activity; also recorded: comparable or superior to GSH
- effect on SOD2 mRNA expression (SOD2 mRNA): increased SOD2 mRNA expression
- SOD2 mRNA expression compared to positive control GSH (SOD2 mRNA): remarkably excellent; also recorded: statistically significant activity

Substance: γ-GLU-GLN-GLU ([γGlu]-Gln-Glu)
- DPPH-scavenging ability of peptide compared to GSH [1]: comparable or superior to GSH
- reducing power of peptide compared to GSH [2]: comparable or superior to GSH
- effect on expression of Nrf2 mRNA (Nrf2 mRNA): improve the expression of Nrf2 mRNA
- Nrf2 mRNA expression compared to positive control GSH (Nrf2 mRNA): remarkably excellent effect; also recorded: statistically significant activity; also recorded: comparable or superior to GSH
- effect on SOD2 mRNA expression (SOD2 mRNA): increased SOD2 mRNA expression
- SOD2 mRNA expression compared to positive control GSH (SOD2 mRNA): remarkably excellent; also recorded: statistically significant activity

Source: patent publication US11925672B2, “Peptide having antioxidant activity and composition containing same” (SEMPIO FOODS COMPANY, priority 2018, dated 2024)
